Assay results as given in US12187742B2 (XRAD Therapeutics, Inc., priority 2018, dated 2025).
Counter-ions that a name gives are not always drawn.

Key:
DNA-PK = DNA-PK (Homo sapiens (Human), UniProt P78527); experiment: DNA-PK Enzyme-Linked Immunosorbent Assay (phosphorylation of GST-p53 (1-101) peptide); format: biochemical; conditions: ELISA, ATP 20 μM
Summary of the method: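 Inhibition measured by 450 nm absorbance after HRP/TMB detection of phospho-Ser15 on immobilized GST-p53 (1-101). The kinase reaction used 0.1 μg/mL DNA-PK and 20 μM ATP, 1 h at 25 °C. Ten 3-fold compound dilutions, top final concentration 100 nM.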

ATM = ATM (Homo sapiens (Human), UniProt Q13315); experiment: ATM in Cell Western Assay (pKAP1 in etoposide-treated MCF-7 cells); format: cell-based; conditions: MCF-7 cells, etoposide 100 μM, 1 hr, pKAP1 readout
Chain of ATM (Q13315 whole entry): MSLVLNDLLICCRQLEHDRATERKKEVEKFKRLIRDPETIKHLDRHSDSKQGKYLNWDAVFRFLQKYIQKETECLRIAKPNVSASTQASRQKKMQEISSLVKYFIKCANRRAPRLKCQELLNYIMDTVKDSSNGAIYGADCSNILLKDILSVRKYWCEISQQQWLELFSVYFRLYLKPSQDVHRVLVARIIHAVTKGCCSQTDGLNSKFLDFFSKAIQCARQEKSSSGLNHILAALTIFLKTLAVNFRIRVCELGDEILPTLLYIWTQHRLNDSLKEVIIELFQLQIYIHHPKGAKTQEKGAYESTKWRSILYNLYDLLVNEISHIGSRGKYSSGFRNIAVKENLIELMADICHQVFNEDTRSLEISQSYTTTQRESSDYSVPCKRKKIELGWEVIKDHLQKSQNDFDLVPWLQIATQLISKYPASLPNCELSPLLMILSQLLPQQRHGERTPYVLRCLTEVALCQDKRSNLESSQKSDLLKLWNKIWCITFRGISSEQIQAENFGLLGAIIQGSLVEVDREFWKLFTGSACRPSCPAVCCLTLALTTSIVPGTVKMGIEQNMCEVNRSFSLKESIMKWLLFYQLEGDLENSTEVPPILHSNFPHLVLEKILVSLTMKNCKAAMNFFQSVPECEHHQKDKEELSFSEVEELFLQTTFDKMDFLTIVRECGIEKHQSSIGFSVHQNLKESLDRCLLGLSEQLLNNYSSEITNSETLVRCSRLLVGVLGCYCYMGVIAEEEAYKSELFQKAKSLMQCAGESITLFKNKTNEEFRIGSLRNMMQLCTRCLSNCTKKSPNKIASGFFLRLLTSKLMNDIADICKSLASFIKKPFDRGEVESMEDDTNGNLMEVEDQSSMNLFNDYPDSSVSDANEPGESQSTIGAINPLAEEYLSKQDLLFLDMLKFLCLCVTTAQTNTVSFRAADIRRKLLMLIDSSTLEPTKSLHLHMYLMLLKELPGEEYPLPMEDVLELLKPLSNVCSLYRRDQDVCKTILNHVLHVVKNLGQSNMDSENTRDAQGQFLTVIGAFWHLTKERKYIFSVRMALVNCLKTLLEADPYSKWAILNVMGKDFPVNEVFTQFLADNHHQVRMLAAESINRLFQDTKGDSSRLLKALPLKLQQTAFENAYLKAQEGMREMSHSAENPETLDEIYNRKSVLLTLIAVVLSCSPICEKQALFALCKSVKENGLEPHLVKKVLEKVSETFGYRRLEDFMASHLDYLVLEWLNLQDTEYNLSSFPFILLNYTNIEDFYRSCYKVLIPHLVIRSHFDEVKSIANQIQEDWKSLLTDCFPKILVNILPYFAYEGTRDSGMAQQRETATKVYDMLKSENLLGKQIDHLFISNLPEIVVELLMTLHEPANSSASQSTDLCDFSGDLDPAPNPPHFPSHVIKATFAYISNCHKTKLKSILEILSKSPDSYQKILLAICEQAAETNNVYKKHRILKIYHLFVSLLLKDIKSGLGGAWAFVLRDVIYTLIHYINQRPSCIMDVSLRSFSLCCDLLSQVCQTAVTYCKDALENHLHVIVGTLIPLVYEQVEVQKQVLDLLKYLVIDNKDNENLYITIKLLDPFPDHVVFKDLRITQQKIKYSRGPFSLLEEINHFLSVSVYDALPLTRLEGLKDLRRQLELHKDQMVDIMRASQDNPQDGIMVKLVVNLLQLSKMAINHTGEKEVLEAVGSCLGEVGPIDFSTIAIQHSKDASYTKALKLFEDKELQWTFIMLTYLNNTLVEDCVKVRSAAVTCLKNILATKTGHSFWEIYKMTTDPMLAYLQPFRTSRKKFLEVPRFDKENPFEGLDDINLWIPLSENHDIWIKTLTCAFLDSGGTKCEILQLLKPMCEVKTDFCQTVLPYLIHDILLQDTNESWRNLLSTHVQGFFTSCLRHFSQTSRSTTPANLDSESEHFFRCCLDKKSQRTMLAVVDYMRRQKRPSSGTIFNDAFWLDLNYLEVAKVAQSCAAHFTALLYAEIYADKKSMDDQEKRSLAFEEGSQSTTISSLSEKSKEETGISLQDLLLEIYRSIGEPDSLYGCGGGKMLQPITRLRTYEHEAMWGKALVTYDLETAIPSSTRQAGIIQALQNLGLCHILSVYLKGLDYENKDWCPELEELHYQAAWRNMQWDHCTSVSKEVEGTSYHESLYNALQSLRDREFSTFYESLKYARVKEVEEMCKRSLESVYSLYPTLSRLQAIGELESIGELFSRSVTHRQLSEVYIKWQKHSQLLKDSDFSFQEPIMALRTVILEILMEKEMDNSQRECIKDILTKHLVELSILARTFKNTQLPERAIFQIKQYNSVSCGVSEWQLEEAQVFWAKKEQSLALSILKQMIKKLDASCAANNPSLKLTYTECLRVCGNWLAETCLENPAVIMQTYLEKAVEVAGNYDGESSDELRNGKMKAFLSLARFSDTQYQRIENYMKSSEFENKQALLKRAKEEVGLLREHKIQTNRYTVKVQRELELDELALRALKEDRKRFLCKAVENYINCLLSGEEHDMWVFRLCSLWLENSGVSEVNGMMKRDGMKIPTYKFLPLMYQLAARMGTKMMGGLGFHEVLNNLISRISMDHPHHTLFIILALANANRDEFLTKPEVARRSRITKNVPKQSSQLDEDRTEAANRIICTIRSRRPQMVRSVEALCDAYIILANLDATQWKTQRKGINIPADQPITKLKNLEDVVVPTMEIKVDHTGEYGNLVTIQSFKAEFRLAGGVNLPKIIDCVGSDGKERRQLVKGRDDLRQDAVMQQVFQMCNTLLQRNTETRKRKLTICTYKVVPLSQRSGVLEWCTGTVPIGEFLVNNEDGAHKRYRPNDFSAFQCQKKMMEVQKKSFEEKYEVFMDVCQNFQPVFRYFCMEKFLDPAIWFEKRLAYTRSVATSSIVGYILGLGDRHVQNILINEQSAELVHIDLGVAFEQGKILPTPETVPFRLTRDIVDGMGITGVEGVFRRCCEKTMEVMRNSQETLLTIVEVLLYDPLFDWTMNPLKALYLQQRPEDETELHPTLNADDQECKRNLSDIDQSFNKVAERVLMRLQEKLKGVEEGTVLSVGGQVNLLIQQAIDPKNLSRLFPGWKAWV
Summary of the method: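 After paraformaldehyde fixation and Triton X-100 permeabilization, immunostained plates were read by infrared scanning (ODYSSEY CLx). Compound was given as 10 doses, 3-fold dilutions from a 1 μM final top concentration.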

IC50 (DNA-PK) [nM]	IC50 (ATM) [nM]	SMILES
< 0.5	1 to 100	CN(C)CCCOc1ncc(-c2ccc3ncc4c(c3c2)C2(CCC2)C(=O)N4C)cc1NS(=O)(=O)CCN [Example 223, 2-Amino-N-(2-(3-(dimethylamino)propoxy)-5-(3′-methyl-2′-oxo-2′,3′-dihydrospiro[cyclobutane-1,1′-pyrrolo[2,3-c]quinolin]-8′-yl)pyridin-3-yl)ethane-1-sulfonamide]
< 0.5	1 to 100	CN1C(=O)C2(CCC2)c2c1cnc1ccc(-c3cnc(N4CCC(N(C)C)CC4)c(NS(C)(=O)=O)c3)cc21 [Example 224, N-(2-(4-(Dimethylamino)piperidin-1-yl)-5-(3′-methyl-2′-oxo-2′,3′-dihydrospiro[cyclobutane-1,1′-pyrrolo[2,3-c]quinolin]-8′-yl)pyridin-3-yl)methanesulfonamide]
< 0.5	1 to 100	CN1C(=O)C2(CCC2)c2c1cnc1ccc(-c3cnc(OCCCN4CCCCC4)c(NS(C)(=O)=O)c3)cc21 [Example 225, N-(5-(3′-Methyl-2′-oxo-2′,3′-dihydrospiro[cyclobutane-1,1′-pyrrolo[2,3-c]quinolin]-8′-yl)-2-(3-(piperidin-1-yl)propoxy)pyridin-3-yl)methanesulfonamide]
< 0.5	0.5 to 1	CN1C(=O)C2(CCC2)c2c1cnc1ccc(-c3cnc(N4CCC(N(C)C)CC4)c(NS(=O)(=O)N(C)C)c3)cc21 [Example 226, 8′-{6-[4-(Dimethylamino)piperidin-1-yl]-5-[(dimethylsulfamoyl)amino]pyridin-3-yl}-3′-methyl-2′,3′-dihydrospiro[cyclobutane-1,1′-pyrrolo[2,3-c]quinoline]-2′-one]
< 0.5	0.5 to 1	CN1CCN(c2ncc(-c3ccc4ncc5c(c4c3)C3(CCC3)C(=O)N5C)cc2NS(=O)(=O)C2CC2)CC1 [Example 227, N-(5-(3′-Methyl-2′-oxo-2′,3′-dihydrospiro[cyclobutane-1,1′-pyrrolo[2,3-c]quinolin]-8′-yl)-2-(4-methylpiperazin-1-yl)pyridin-3-yl)cyclopropanesulfonamide hydrochloride]
< 0.5	0.5 to 1	CN1C(=O)C2(CCC2)c2c1cnc1ccc(-c3cnc(N4CCC(N5CCCCC5)CC4)c(NS(C)(=O)=O)c3)cc21 [Example 228, N-(2-([1,4′-Bipiperidin]-1′-yl)-5-(3′-methyl-2′-oxo-2′,3′-dihydrospiro[cyclobutane-1,1′-pyrrolo[2,3-c]quinolin]-8′-yl)pyridin-3-yl)methanesulfonamide]
< 0.5	0.5 to 1	CN1CCN(c2ncc(-c3ccc4ncc5c(c4c3)C3(CCC3)C(=O)N5C)cc2NS(C)(=O)=O)CC1 [Example 229, N-(5-(3′-Methyl-2′-oxo-2′,3′-dihydrospiro[cyclobutane-1,1′-pyrrolo[2,3-c]quinolin]-8′-yl)-2-(4-methylpiperazin-1-yl)pyridin-3-yl)methanesulfonamide]
< 0.5	1 to 100	CN1CCN(c2ncc(-c3ccc4ncc5c(c4c3)C3(CCC3)C(=O)N5C)cc2NS(=O)(=O)N(C)C)CC1 [Example 230, 8′-{5-[(Dimethylsulfamoyl)amino]-6-(4-methylpiperazin-1-yl)pyridin-3-yl}-3′-methyl-2′,3′-dihydrospiro[cyclobutane-1,1′-pyrrolo[2,3-c]quinoline]-2′-one]
0.5 to 1	1 to 100	CN1C(=O)C2(CCC2)c2c1cnc1ccc(-c3cnc(OCCCN4CCCC4)c(NS(=O)(=O)c4ccccc4)c3)cc21 [Example 232, N-(5-(3′-Methyl-2′-oxo-2′,3′-dihydrospiro[cyclobutane-1,1′-pyrrolo[2,3-c]quinolin]-8′-yl)-2-(3-(pyrrolidin-1-yl)propoxy)pyridin-3-yl)benzenesulfonamide]
0.5 to 1	1 to 100	Cc1cc(S(=O)(=O)Nc2cc(-c3ccc4ncc5c(c4c3)C3(CCC3)C(=O)N5C)cnc2N2CCC(N(C)C)CC2)sn1 [Example 233, N-(2-(4-(Dimethylamino)piperidin-1-yl)-5-(3′-methyl-2′-oxo-2′,3′-dihydrospiro[cyclobutane-1,1′-pyrrolo[2,3-c]quinolin]-8′-yl)pyridin-3-yl)-3-methylisothiazole-5-sulfonamide]
1 to 100	1 to 100	CN1C(=O)C2(CCC2)c2c1cnc1ccc(-c3cnc(OCCCN4CCCC4)c(NS(=O)(=O)C4CC4)c3)cc21 [Example 235, N-(5-(3′-Methyl-2′-oxo-2′,3′-dihydrospiro[cyclobutane-1,1′-pyrrolo[2,3-c]quinolin]-8′-yl)-2-(3-(pyrrolidin-1-yl)propoxy)pyridin-3-yl)cyclopropanesulfonamide]
0.5 to 1	1 to 100	CN1C(=O)C2(CCC2)c2c1cnc1ccc(-c3cnc(OCCCN4CCCC4)c(NS(C)(=O)=O)c3)cc21 [Example 236, N-(5-(3′-Methyl-2′-oxo-2′,3′-dihydrospiro[cyclobutane-1,1′-pyrrolo[2,3-c]quinolin]-8′-yl)-2-(3-(pyrrolidin-1-yl)propoxy)pyridin-3-yl)methanesulfonamide]
1 to 100	1 to 100	CN(C)CCCOc1ncc(-c2ccc3ncc4c(c3c2)C2(CCC2)C(=O)N4)cc1NS(C)(=O)=O [Example 237, N-(2-(3-(Dimethylamino)propoxy)-5-(2′-oxo-2′,3′-dihydrospiro [cyclobutane-1,1′-pyrrolo[2,3-c]quinolin]-8′-yl)pyridin-3-yl)methanesulfonamide]
1 to 100	1 to 100	CCS(=O)(=O)Nc1cc(-c2ccc3ncc4c(c3c2)C2(CCC2)C(=O)N4C)cnc1OCCCN(C)C [Example 238, N-(2-(3-(Dimethylamino)propoxy)-5-(3′-methyl-2′-oxo-2′,3′-dihydrospiro [cyclobutane-1,1′-pyrrolo[2,3-c]quinolin]-8′-yl)pyridin-3-yl) ethanesulfonamide]
< 0.5	1 to 100	CN(C)CCCOc1ncc(-c2ccc3ncc4c(c3c2)C2(CCC2)C(=O)N4C)cc1NS(=O)(=O)C(F)(F)F [Example 239, N-(2-(3-(Dimethylamino)propoxy)-5-(3′-methyl-2′-oxo-2′,3′-dihydrospiro [cyclobutane-1,1′-pyrrolo[2,3-c]quinolin]-8′-yl)pyridin-3-yl)-1,1,1-trifluoromethane-sulfonamide]
< 0.5	1 to 100	CNCCCOc1ncc(-c2ccc3ncc4c(c3c2)C2(CCC2)C(=O)N4C)cc1NS(C)(=O)=O [Example 240, N-(5-(3′-Methyl-2′-oxo-2′,3′-dihydrospiro[cyclobutane-1,1′-pyrrolo[2,3-c]quinolin]-8′-yl)-2-(3-(methylamino)propoxy)pyridin-3-yl) methanesulfonamide formate]
1 to 100	1 to 100	CCCS(=O)(=O)Nc1cc(-c2ccc3ncc4c(c3c2)C2(CCC2)C(=O)N4C)cnc1OCCCN(C)C [Example 241, N-(2-(3-(Dimethylamino)propoxy)-5-(3′-methyl-2′-oxo-2′,3′-dihydrospiro [cyclobutane-1,1′-pyrrolo[2,3-c]quinolin]-8′-yl)pyridin-3-yl)propane-1-sulfonamide]
1 to 100	0.5 to 1	CN1C(=O)C2(CCC2)c2c1cnc1ccc(-c3cnc(OCCCN4CCCC4)c(NS(=O)(=O)N(C)C)c3)cc21 [Example 242, 8′-(5-[(Dimethylsulfamoyl)amino]-6-[3-(pyrrolidin-1-yl)propoxy]pyridin-3-yl)-3′-methyl-2′,3′-dihydrospiro [cyclobutane-1,1′-pyrrolo[2,3-c]quinoline]-2′-one]
1 to 100	1 to 100	CN1CCN(c2ncc(-c3ccc4ncc5c(c4c3)C3(CCC3)C(=O)N5C)cc2NS(=O)(=O)c2ccccc2)CC1 [Example 243, N-(5-(3′-Methyl-2′-oxo-2′,3′-dihydrospiro[cyclobutane-1,1′-pyrrolo[2,3-c]quinolin]-8′-yl)-2-(4-methylpiperazin-l-yl)Pyridin-3-yl)benzenesulfonamide]
1 to 100	1 to 100	CN(C)CCCOc1ncc(-c2ccc3ncc4c(c3c2)C2(CCC2)C(=O)N4C)cc1NS(=O)(=O)N1CCCC1 [Example 244, N-(2-(3-(Dimethylamino)propoxy)-5-(3′-methyl-2′-oxo-2′,3′-dihydrospiro [cyclobutane-1,1′-pyrrolo[2,3-c]quinolin]-8′-yl)pyridin-3-yl)pyrrolidine-1-sulfonamide]
< 0.5	1 to 100	CCc1ncc(S(=O)(=O)Nc2cc(-c3ccc4ncc5c(c4c3)C3(CCC3)C(=O)N5C)cnc2OCCCN(C)C)s1 [Example 245, N-(2-(3-(Dimethylamino)propoxy)-5-(3′-methyl-2′-oxo-2′,3′-dihydrospiro [cyclobutane-1,1′-pyrrolo [2,3-c]quinolin]-8′-yl)pyridin-3-yl)-2-ethylthiazole-5-sulfonamide]
< 0.5	1 to 100	Cc1cc(S(=O)(=O)Nc2cc(-c3ccc4ncc5c(c4c3)C3(CCC3)C(=O)N5C)cnc2N2CCN(C)CC2)sn1 [Example 246, 3-Methyl-N-(5-(3′-methyl-2′-oxo-2′,3′-dihydrospiro[cyclobutane-1,1′-pyrrolo[2,3-c]quinolin]-8′-yl)-2-(4-methylpiperazin-1-yl)pyridin-3-yl)isothiazole-5-sulfonamide]
< 0.5	1 to 100	CN(C)CCCOc1ncc(-c2ccc3ncc4c(c3c2)C2(CCC2)C(=O)N4C)cc1NS(=O)(=O)C(F)F [Example 247, N-(2-(3-(Dimethylamino)propoxy)-5-(3′-methyl-2′-oxo-2′,3′-dihydrospiro [cyclobutane-1,1′-pyrrolo[2,3-c]quinolin]-8′-yl)pyridin-3-yl)-1,1′-difluoromethane-sulfonamide]
